Laboratory results from ChEMBL document CHEMBL5113512, “β-Nitrostyrene derivatives as broad range potential antifungal agents targeting fungal cell wall” (2022).
In brackets after ≈: the same amount, converted by molar mass. Activity calls are given as the source filed them. No cut-off for these calls is given here.

Experiments:
[Candida] auris [1] = Induction of ROS generation in Candida auris CBS10913 assessed as increase in relative fluorescence unit at sub-inhibitory concentration incubated for 1 hr by DCFDA staining-based flow cytometric analysis; format: functional, organism-based; details: Candidozyma auris
Candida [2] = test: Upregulation of ARG6 gene expression in Candida cells; format: functional, cell-based
[Candida] auris [3] = Antifungal activity against Candida auris 118 assessed as inhibition of fungal growth by broth microdilution method; format: functional; details: Candidozyma auris
Candida albicans [4] = test: Antifungal activity against Candida albicans ATCC 24433 overexpressing ADCaMDR1-GFP assessed as inhibition of fungal growth by broth microdilution method; format: functional
Candida albicans [5] = test: Synergistic antifungal activity against wild type Candida albicans SN152 assessed as fluconazole MIC incubated for 48 hrs by checker board assay; format: functional
Candida [6] = test: Upregulation of LSC1 gene expression in Candida cells; format: functional, cell-based
[Candida] auris [7] = Synergistic antifungal activity against Candida auris CBS10913 assessed as inhibition of fungal growth incubated for 48 hrs in presence of SDS by checker board assay; format: functional; details: Candidozyma auris
[Candida] auris [8] = Synergistic antifungal activity against Candida auris CBS10913 assessed as inhibition of fungal growth incubated for 48 hrs in presence of Congo red by checker board assay; format: functional; details: Candidozyma auris
Candida albicans [9] = test: Downregulation of ATO5 gene expression in Candida albicans ATCC 24433 by qRT-PCR analysis; format: functional
Candida [10] = test: Downregulation of ACF2 gene expression in Candida cells; format: functional, cell-based
Candida albicans [11] = test: Synergistic antifungal activity against Candida albicans SN152 harboring CAS5 mutant assessed as fluconazole MIC incubated for 48 hrs by checker board assay; format: functional
Candida [12] = test: Upregulation of VPH2 gene expression in Candida cells; format: functional, cell-based
Candida albicans [13] = test: Synergistic antifungal activity against Candida albicans ATCC 24433 assessed as fractional inhibitory concentration index incubated for 48 hrs in presence of Calcoflour White by checker board assay; format: functional
Candida [14] = test: Downregulation of VTC3 gene expression in Candida cells; format: functional, cell-based
Candida [15] = test: Downregulation of STT4 gene expression in Candida cells; format: functional, cell-based
Candida [16] = test: Downregulation of PGA57 gene expression in Candida cells; format: functional, cell-based
Candida albicans [17] = test: Antifungal activity against Candida albicans ATCC 24433 overexpressing ADPDR5-GFP assessed as inhibition of fungal growth by broth microdilution method; format: functional
Candida albicans [18] = test: Inhibition of drug efflux in Candida albicans ATCC 24433 overexpressing ADPDR5-GFP assessed as reduction in rhodamine 6g efflux preincubated for 45 mins followed by substrate addition and measured after 30 mins; format: functional; details: dose 0.1-100 µg/ml, time 75.0 min, DDE = dose-dependent effect
Candida [19] = test: Downregulation of PGA10 gene expression in Candida cells; format: functional, cell-based
Candida albicans [20] = test: Synergistic antifungal activity against Candida albicans SN152 harboring CAS5 mutant assessed as fractional inhibitory concentration index incubated for 48 hrs in presence of fluconazole by checker board assay; format: functional
Candida [21] = test: Upregulation of PLB5 gene expression in Candida cells; format: functional, cell-based
[Candida] auris [22] = Antifungal activity against Candida auris 105 assessed as inhibition of fungal growth by broth microdilution method; format: functional; details: Candidozyma auris
Candida [23] = test: Downregulation of GIT3 gene expression in Candida cells; format: functional, cell-based
[Candida] auris [24] = Synergistic antifungal activity against Candida auris CBS10913 assessed as SDS MIC incubated for 48 hrs by checker board assay; format: functional; details: Candidozyma auris
Candida albicans [25] = test: Synergistic antifungal activity against Candida albicans SN152 harboring CAS5 mutant assessed as Amphotericin B MIC incubated for 48 hrs by checker board assay; format: functional
[Candida] auris [26] = Antifungal activity against Candida auris 102 assessed as inhibition of fungal growth by broth microdilution method; format: functional; details: Candidozyma auris
Candida albicans [27] = test: Antifungal activity against Candida albicans ATCC 24433 overexpressing transporter protein F5 assessed as inhibition of fungal growth by broth microdilution method; format: functional
Candida albicans [28] = test: Synergistic antifungal activity against wild type Candida albicans SN152 assessed as inhibition of fungal growth incubated for 48 hrs in presence of Caspofungin by checker board assay; format: functional
Nakaseomyces glabratus = test: Antifungal activity against Candida glabrata ATCC 2001 assessed as inhibition of fungal growth by broth microdilution method; format: functional
Candida [29] = test: Downregulation of CDC4 gene expression in Candida cells; format: functional, cell-based
Candida [30] = test: Downregulation of CCT2 gene expression in Candida cells; format: functional, cell-based
Candida albicans [31] = test: Synergistic antifungal activity against wild type Candida albicans SN152 assessed as fractional inhibitory concentration index incubated for 48 hrs in presence of fluconazole by checker board assay; format: functional
Cell membrane [32] = test: Disruption of membrane integrity in Candida albicans ATCC 24433 assessed as cell deformation measured after 30 mins by SEM analysis; format: subcellular
Candida albicans [33] = test: Synergistic antifungal activity against Candida albicans ATCC 24433 overexpressing ADCDR1-GFP assessed as fractional inhibitory concentration index incubated for 48 hrs in presence of caspofungin by checker board assay; format: functional
Candida [34] = test: Downregulation of RBT1 gene expression in Candida cells; format: functional, cell-based
Candida albicans [35] = test: Synergistic antifungal activity against wild type Candida albicans SN152 assessed as Caspofungin MIC incubated for 48 hrs by checker board assay; format: functional
Candida [36] = test: Downregulation of CLN3 gene expression in Candida cells; format: functional, cell-based
Candida albicans [37] = test: Antifungal activity against Candida albicans ATCC 24433 overexpressing AD(1-8)u-assessed as inhibition of fungal growth by broth microdilution method; format: functional
Candida albicans [38] = test: Synergistic antifungal activity against Candida albicans ATCC 24433 assessed as fractional inhibitory concentration index incubated for 48 hrs in presence of caspofungin by checker board assay; format: functional
Candida [39] = test: Downregulation of CCT3 gene expression in Candida cells; format: functional, cell-based
Candida albicans [40] = test: Synergistic antifungal activity against Candida albicans SN152 harboring CAS5 mutant assessed as inhibition of fungal growth incubated for 48 hrs in presence of fluconazole by checker board assay; format: functional
Candida [41] = test: Downregulation of BMT5 gene expression in Candida cells; format: functional, cell-based
Candida albicans [42] = test: Antifungal activity against Candida albicans ATCC 24433 overexpressing ADCDR1-GFP assessed as inhibition of fungal growth by broth microdilution method; format: functional
Candida albicans [43] = test: Antifungal activity against Candida albicans ATCC 24433 overexpressing transporter protein GU4 assessed as inhibition of fungal growth by broth microdilution method; format: functional
Candida albicans [44] = test: Synergistic antifungal activity against wild type Candida albicans SN152 assessed as fractional inhibitory concentration index incubated for 48 hrs in presence of Amphotericin B by checker board assay; format: functional
Candida albicans [45] = test: Synergistic antifungal activity against Candida albicans SN152 harboring CAS5 mutant assessed as fractional inhibitory concentration index incubated for 48 hrs in presence of Caspofungin by checker board assay; format: functional
Candida albicans [46] = test: Synergistic antifungal activity against Candida albicans ATCC 24433 assessed as inhibition of fungal growth incubated for 48 hrs in presence of SDS by checker board assay; format: functional
Cell membrane [47] = test: Disruption of membrane integrity in Candida auris CBS10913 assessed as cell surface perturbations measured after 3 hrs by SEM analysis; format: subcellular; details: Candidozyma auris
Candida albicans [48] = test: Synergistic antifungal activity against Candida albicans ATCC 24433 assessed as Congo red MIC incubated for 48 hrs by checker board assay; format: functional
Candida [49] = test: Downregulation of CCW14 gene expression in Candida cells; format: functional, cell-based

O=[N+]([O-])/C=C/c1ccc(O)cc1
Activity ([Candida] auris [1]): Active | Activity (Candida [2]): Active | MIC80 ([Candida] auris [3]): 4 µg/mL (≈ 24.2 µM) | MIC80 (Candida albicans [4]): 4 µg/mL (≈ 24.2 µM) | MIC (Candida albicans [5]): 0.25 µg/mL | Activity (Candida [6]): Active | MIC ([Candida] auris [7]): 0.5 µg/mL | MIC ([Candida] auris [8]): 0.125 µg/mL | Activity (Candida albicans [9]): Active | Activity (Candida [10]): Active | MIC (Candida albicans [11]): 0.125 µg/mL | Activity (Candida [12]): Active | fractional inhibitory concentration index (FICI) (Candida albicans [13]): 0.25 | Activity (Candida [14]): Active | Activity (Candida [15]): Active | Activity (Candida [16]): Active | MIC80 (Candida albicans [17]): 4 µg/mL (≈ 24.2 µM) | inhibition (Candida albicans [18]): Dde | Activity (Candida [19]): Active | fractional inhibitory concentration index (FICI) (Candida albicans [20]): 0.126 | Activity (Candida [21]): Active | MIC80 ([Candida] auris [22]): 2 µg/mL (≈ 12.1 µM) | Activity (Candida [23]): Active | MIC ([Candida] auris [24]): 60 µg/mL | MIC (Candida albicans [25]): 0.25 µg/mL | MIC80 ([Candida] auris [26]): 4 µg/mL (≈ 24.2 µM) | MIC80 (Candida albicans [27]): 2 µg/mL (≈ 12.1 µM) | MIC (Candida albicans [28]): 0.0625 µg/mL | MIC80 (Nakaseomyces glabratus): 8 µg/mL (≈ 48.4 µM) | Activity (Candida [29]): Active | Activity (Candida [30]): Active | fractional inhibitory concentration index (FICI) (Candida albicans [31]): 0.25 | Activity (Cell membrane [32]): Active | fractional inhibitory concentration index (FICI) (Candida albicans [33]): <0.5 | Activity (Candida [34]): Active | MIC (Candida albicans [35]): 0.0312 µg/mL | Activity (Candida [36]): Active | MIC80 (Candida albicans [37]): 4 µg/mL (≈ 24.2 µM) | fractional inhibitory concentration index (FICI) (Candida albicans [38]): <3.5 | Activity (Candida [39]): Active | MIC (Candida albicans [40]): 0.001 µg/mL | Activity (Candida [41]): Active | MIC80 (Candida albicans [42]): 4 µg/mL (≈ 24.2 µM) | MIC80 (Candida albicans [43]): 4 µg/mL (≈ 24.2 µM) | fractional inhibitory concentration index (FICI) (Candida albicans [44]): 0.507 | fractional inhibitory concentration index (FICI) (Candida albicans [45]): 0.5 | MIC (Candida albicans [46]): 1 µg/mL | Activity (Cell membrane [47]): Active | MIC (Candida albicans [48]): 3.12 µg/mL | Activity (Candida [49]): Active
